Source: patent US9149038B2, “4-amino-6-(heterocyclic)picolinates and 6-amino-2-(heterocyclic)pyrimidine-4-carboxylates and their use as herbicides” (Dow AgroSciences LLC, priority 2013, dated 2015)
Where two headings read alike, the source gives them in different places.

Tested on: Wheat and Barley and weed species
Assay: Post-Emergent Test III: postemergent herbicidal activity in wheat and barley, visual rating after 21 d and probit GR20/GR50/GR80/GR90 (Tables 9-13)
Type: in vivo
Conditions: for Visual Growth Reduction (%) 21 Days After Application BRSNW: winter, canola; for pest or weed control at 17.5 g/ha / pest or weed control at 35 g/ha / pest or weed control at 70 g/ha: post-emergence, 504 h
Source text: Herbicidal evaluations were made visually on a scale of 0 to 100 where 0 represents no activity and 100 represents complete plant death.
Seeds of the desired test plant species were planted in Sun Gro MetroMix® 306 planting mixture, which typically has a pH of 6.0 to 6.8 and an organic matter content of about 30 percent, in plastic pots with a surface area of 103.2 square centimeters (cm^2). When required to ensure good germination and healthy plants, a fungicide treatment and/or other chemical or physical treatment was applied. The plants were grown for 7-36 days (d) in a greenhouse with an approximate 14 hour (h) photoperiod which was maintained at about 18° C. during the day and 17° C. during the night. Nutrients and water were added on a regular basis and supplemental lighting was provided with overhead metal halide 1000-Watt lamps as necessary. The plants were employed for testing when they reached the second or third true leaf stage.
A weighed amount, determined by the highest rate to be tested, of each test compound was placed in a 25 mL glass vial and was dissolved in 4 mL of a 97:3 v/v mixture of acetone and DMSO to obtain concentrated stock solutions. […] The concentrated stock solutions obtained were diluted with 20 mL of an aqueous mixture containing acetone, water, isopropyl alcohol, DMSO, Agri-Dex crop oil concentrate, and X-77 surfactant in a 48:39:10:1.5:1.5:0.02 v/v ratio to obtain spray solutions containing the highest application rates. Additional application rates were obtained by serial dilution of 12 mL of the high rate solution into a solution containing 2 mL of a 97:3 v/v mixture of acetone and DMSO and 10 mL of an aqueous mixture containing acetone, water, isopropyl alcohol, DMSO, Agri-Dex crop oil concentrate, and X-77 surfactant in a 48:39:10:1.5:1.5:0.02 v/v ratio to obtain ½×, ¼×, ⅛× and 1/16× rates of the high rate. Compound requirements are based upon a 12 mL application volume at a rate of 187 liters per hectare (L/ha). Formulated compounds were applied to the plant material with an overhead Mandel track sprayer equipped with 8002E nozzles calibrated to deliver 187 L/ha over an application area of 0.503 square meters at a spray height of 18 inches (43 cm) above the average plant canopy height. Control plants were sprayed in the same manner with the solvent blank.
The treated plants and control plants were placed in a greenhouse as described above and watered by subirrigation to prevent wash-off of the test compounds. After 21 d, the condition of the test plants as compared with that of the untreated plants was determined visually and scored on a scale of 0 to 100 percent where 0 corresponds to no injury and 100 corresponds to complete kill and are presented as indicated in Table 4.
By applying the well-accepted probit analysis as described by J. Berkson in Journal of the American Statistical Society, 48, 565 (1953) and by D. Finney in “Probit Analysis” Cambridge University Press (1952), herbicidal injury of a specific compound at various rates can be used to calculate GR20, GR50, GR80 and GR90 values, which are defined as growth reduction factors that correspond to the effective dose of herbicide required to provide plant growth reduction (GR) of 20 percent, 50 percent, 80 percent and 90 percent, respectively. Probit analysis was applied to data collected from multiple dose rates of individual compounds utilizing the procedures explained in the following examples. The data for some of the dose rates and analysis of all of the dose rates are captured in the following tables.

## Nc1c(F)c(-c2ccc3c(c2)OC(F)(F)O3)nc(C(=O)O)c1Cl [Compound 7]
ALOMY black-grass (Alopecurus myosuroides), growth reduction of 50%, probit analysis
  GR50 ALOMY: 16 g ai/ha
ALOMY black-grass (Alopecurus myosuroides), growth reduction of 80%, probit analysis
  GR80 ALOMY: 25 g ai/ha
ALOMY black-grass (Alopecurus myosuroides), growth reduction of 90%, probit analysis
  GR90 ALOMY: 34 g ai/ha
APESV bentgrass (Apera spica-venti), growth reduction of 50%, probit analysis
  GR50 APESV: 30 g ai/ha
APESV bentgrass (Apera spica-venti), growth reduction of 80%, probit analysis
  GR80 APESV: 114 g ai/ha
APESV bentgrass (Apera spica-venti), growth reduction of 90%, probit analysis
  GR90 APESV: >140 g ai/ha
BROTE downy brome (Bromus tectorum), 17.5 g ai/ha
  Visual Growth Reduction (%) 21 Days After Application BROTE: E (45-59)
BROTE downy brome (Bromus tectorum), 35 g ai/ha
  Visual Growth Reduction (%) 21 Days After Application BROTE: D (60-74)
BROTE downy brome (Bromus tectorum), 70 g ai/ha
  Visual Growth Reduction (%) 21 Days After Application BROTE: A (95-100)
BROTE downy brome (Bromus tectorum), growth reduction of 50%, probit analysis
  GR50 BROTE: 15 g ai/ha
BROTE downy brome (Bromus tectorum), growth reduction of 80%, probit analysis
  GR80 BROTE: 37 g ai/ha
BROTE downy brome (Bromus tectorum), growth reduction of 90%, probit analysis
  GR90 BROTE: 59 g ai/ha
BRSNW oil seed rape, winter (Brassica napus), GR10, probit analysis
  GR10 BRSNW: 0.5 g ai/ha
BRSNW oil seed rape, winter (Brassica napus), growth reduction of 20%, probit analysis
  GR20 BRSNW: 1 g ai/ha
BRSNW oil seed rape, winter (Brassica napus), growth reduction of 50%, probit analysis
  GR50 BRSNW: 5 g ai/ha
BRSNW oil seed rape, winter (Brassica napus), growth reduction of 80%, probit analysis
  GR80 BRSNW: 24 g ai/ha
BRSNW oil seed rape, winter (Brassica napus), growth reduction of 90%, probit analysis
  GR90 BRSNW: 53 g ai/ha
BRSNW oil seed rape, winter (Brassica napus), 17.5 g ai/ha
  Visual Growth Reduction (%) 21 Days After Application BRSNW: D (60-74)
BRSNW oil seed rape, winter (Brassica napus), 35 g ai/ha
  Visual Growth Reduction (%) 21 Days After Application BRSNW: C (75-84)
BRSNW oil seed rape, winter (Brassica napus), 70 g ai/ha
  Visual Growth Reduction (%) 21 Days After Application BRSNW: A (95-100)
GALAP cleavers (Galium aparine), 17.5 g ai/ha
  Visual Growth Reduction (%) 21 Days After Application GALAP: E (45-59)
GALAP cleavers (Galium aparine), 35 g ai/ha
  Visual Growth Reduction (%) 21 Days After Application GALAP: D (60-74)
GALAP cleavers (Galium aparine), 70 g ai/ha
  Visual Growth Reduction (%) 21 Days After Application GALAP: A (95-100)
GALAP cleavers (Galium aparine), growth reduction of 50%, probit analysis
  GR50 GALAP: 12 g ai/ha
GALAP cleavers (Galium aparine), growth reduction of 80%, probit analysis
  GR80 GALAP: 31 g ai/ha
GALAP cleavers (Galium aparine), growth reduction of 90%, probit analysis
  GR90 GALAP: 52 g ai/ha
HORVS barley, spring (crop), GR10, probit analysis
  GR10 HORVS: 1 g ai/ha
HORVS barley, spring (crop), growth reduction of 20%, probit analysis
  GR20 HORVS: 2 g ai/ha
Hordeum vulgare, HORVS barley, spring (crop), 17.5 g ai/ha, read-out: Visual Growth Reduction (%) 21 Days After Application HORVS
  pest or weed control at 17.5 g/ha: 75 to 84%
Hordeum vulgare, HORVS barley, spring (crop), 35 g ai/ha, read-out: Visual Growth Reduction (%) 21 Days After Application HORVS
  pest or weed control at 35 g/ha: 85 to 94%
Hordeum vulgare, HORVS barley, spring (crop), 70 g ai/ha, read-out: Visual Growth Reduction (%) 21 Days After Application HORVS
  pest or weed control at 70 g/ha: 85 to 94%
LAMPU purple deadnettle (Lamium purpureum), 17.5 g ai/ha
  Visual Growth Reduction (%) 21 Days After Application LAMPU: C (75-84)
LAMPU purple deadnettle (Lamium purpureum), 35 g ai/ha
  Visual Growth Reduction (%) 21 Days After Application LAMPU: B (85-94)
LAMPU purple deadnettle (Lamium purpureum), 70 g ai/ha
  Visual Growth Reduction (%) 21 Days After Application LAMPU: A (95-100)
LAMPU purple deadnettle (Lamium purpureum), growth reduction of 50%, probit analysis
  GR50 LAMPU: 3 g ai/ha
LAMPU purple deadnettle (Lamium purpureum), growth reduction of 80%, probit analysis
  GR80 LAMPU: 12 g ai/ha
LAMPU purple deadnettle (Lamium purpureum), growth reduction of 90%, probit analysis
  GR90 LAMPU: 27 g ai/ha
LOLSS ryegrass, growth reduction of 50%, probit analysis
  GR50 LOLSS: >140 g ai/ha
LOLSS ryegrass, growth reduction of 80%, probit analysis
  GR80 LOLSS: >140 g ai/ha
LOLSS ryegrass, growth reduction of 90%, probit analysis
  GR90 LOLSS: >140 g ai/ha
PHAMI lesser canary grass (Phalaris minor), 17.5 g ai/ha
  Visual Growth Reduction (%) 21 Days After Application PHAMI: C (75-84)
PHAMI lesser canary grass (Phalaris minor), 35 g ai/ha
  Visual Growth Reduction (%) 21 Days After Application PHAMI: B (85-94)
PHAMI lesser canary grass (Phalaris minor), 70 g ai/ha
  Visual Growth Reduction (%) 21 Days After Application PHAMI: A (95-100)
PHAMI lesser canary grass (Phalaris minor), growth reduction of 50%, probit analysis
  GR50 PHAMI: 10 g ai/ha
PHAMI lesser canary grass (Phalaris minor), growth reduction of 80%, probit analysis
  GR80 PHAMI: 24 g ai/ha
PHAMI lesser canary grass (Phalaris minor), growth reduction of 90%, probit analysis
  GR90 PHAMI: 39 g ai/ha
SETVI green foxtail (Setaria viridis), growth reduction of 50%, probit analysis
  GR50 SETVI: 6 g ai/ha
SETVI green foxtail (Setaria viridis), growth reduction of 80%, probit analysis
  GR80 SETVI: 13 g ai/ha
SETVI green foxtail (Setaria viridis), growth reduction of 90%, probit analysis
  GR90 SETVI: 21 g ai/ha
SINAR wild mustard (Sinapis arvensis), 17.5 g ai/ha
  Visual Growth Reduction (%) 21 Days After Application SINAR: C (75-84)
SINAR wild mustard (Sinapis arvensis), 35 g ai/ha
  Visual Growth Reduction (%) 21 Days After Application SINAR: B (85-94)
SINAR wild mustard (Sinapis arvensis), 70 g ai/ha
  Visual Growth Reduction (%) 21 Days After Application SINAR: A (95-100)
SINAR wild mustard (Sinapis arvensis), growth reduction of 50%, probit analysis
  GR50 SINAR: 3 g ai/ha
SINAR wild mustard (Sinapis arvensis), growth reduction of 80%, probit analysis
  GR80 SINAR: 15 g ai/ha
SINAR wild mustard (Sinapis arvensis), growth reduction of 90%, probit analysis
  GR90 SINAR: 36 g ai/ha
TRZAS wheat, spring (crop), GR10, probit analysis
  GR10 TRZAS: 2 g ai/ha
TRZAS wheat, spring (crop), growth reduction of 20%, probit analysis
  GR20 TRZAS: 3 g ai/ha
Triticum aestivum, TRZAS wheat, spring (crop), 17.5 g ai/ha, read-out: Visual Growth Reduction (%) 21 Days After Application TRZAS
  pest or weed control at 17.5 g/ha: 75 to 84%
Triticum aestivum, TRZAS wheat, spring (crop), 35 g ai/ha, read-out: Visual Growth Reduction (%) 21 Days After Application TRZAS
  pest or weed control at 35 g/ha: 85 to 94%
Triticum aestivum, TRZAS wheat, spring (crop), 70 g ai/ha, read-out: Visual Growth Reduction (%) 21 Days After Application TRZAS
  pest or weed control at 70 g/ha: 85 to 94%
ALOMY black-grass (Alopecurus myosuroides), 17.5 g ai/ha, read-out: Visual Growth Reduction (%) 21 Days After Application ALOMY
  pest or weed control at 17.5 g/ha: 45 to 59%
ALOMY black-grass (Alopecurus myosuroides), 35 g ai/ha, read-out: Visual Growth Reduction (%) 21 Days After Application ALOMY
  pest or weed control at 35 g/ha: 85 to 94%
ALOMY black-grass (Alopecurus myosuroides), 70 g ai/ha, read-out: Visual Growth Reduction (%) 21 Days After Application ALOMY
  pest or weed control at 70 g/ha: 95 to 100%
APESV bentgrass (Apera spica-venti), 17.5 g ai/ha, read-out: Visual Growth Reduction (%) 21 Days After Application APESV
  pest or weed control at 17.5 g/ha: 45 to 59%
APESV bentgrass (Apera spica-venti), 35 g ai/ha, read-out: Visual Growth Reduction (%) 21 Days After Application APESV
  pest or weed control at 35 g/ha: 60 to 74%
APESV bentgrass (Apera spica-venti), 70 g ai/ha, read-out: Visual Growth Reduction (%) 21 Days After Application APESV
  pest or weed control at 70 g/ha: 75 to 84%
LOLSS ryegrass, 17.5 g ai/ha, read-out: Visual Growth Reduction (%) 21 Days After Application LOLSS
  pest or weed control at 17.5 g/ha: 30 to 44%
LOLSS ryegrass, 35 g ai/ha, read-out: Visual Growth Reduction (%) 21 Days After Application LOLSS
  pest or weed control at 35 g/ha: 45 to 59%
LOLSS ryegrass, 70 g ai/ha, read-out: Visual Growth Reduction (%) 21 Days After Application LOLSS
  pest or weed control at 70 g/ha: 60 to 74%
SETVI green foxtail (Setaria viridis), 17.5 g ai/ha, read-out: Visual Growth Reduction (%) 21 Days After Application SETVI
  pest or weed control at 17.5 g/ha: 60 to 74%
SETVI green foxtail (Setaria viridis), 35 g ai/ha, read-out: Visual Growth Reduction (%) 21 Days After Application SETVI
  pest or weed control at 35 g/ha: 75 to 84%
SETVI green foxtail (Setaria viridis), 70 g ai/ha, read-out: Visual Growth Reduction (%) 21 Days After Application SETVI
  pest or weed control at 70 g/ha: 85 to 94%
